Measured values taken from patent US20210322412A1, “METHODS AND COMPOSITIONS FOR TREATING A CORONAVIRUS INFECTION” (priority 2020, published 2021).

What was measured:
[1] = Sorption behavior (dynamic vapour sorption isotherms); type: physicochemical
Method: Sorption isotherms were generated using an IGAsorp water sorption monitor from Hiden Isochema. Adsorption and desorption isotherms were obtained at 25° C. with 10% r.h. step intervals ranging from 10% r.h. to 90% r.h.
For BR salt form only: Sorption isotherms were registered on a DVS-1 water sorption monitor from Surface Measurement Systems.

human CCR2 receptors = human CCR2 receptors (Homo sapiens, UniProt P41597); experiment: CCR2 inhibitory activity; type: binding; details: Receptor CCR2
Method: (§1) The CCR2 and CCR5 inhibitory activity of (4-((3R,4R)-3-methoxytetrahydro-pyran-4-ylamino)piperidin-1-yl)(5-methyl-6-(((2R,6S)-6-(p-tolyl)tetrahydro-2H-pyran-2-yl)methylamino)pyrimidin-4-yl)methanone citrate was evaluated against human CCR2 receptors and human CCR5 receptors.

human CCR5 receptors = human CCR5 receptors (Homo sapiens, UniProt P51681); experiment: CCR5 inhibitory activity; type: binding; details: Receptor CCR5
Method: as §1

Sequence of human CCR5 receptors (P51681 whole entry): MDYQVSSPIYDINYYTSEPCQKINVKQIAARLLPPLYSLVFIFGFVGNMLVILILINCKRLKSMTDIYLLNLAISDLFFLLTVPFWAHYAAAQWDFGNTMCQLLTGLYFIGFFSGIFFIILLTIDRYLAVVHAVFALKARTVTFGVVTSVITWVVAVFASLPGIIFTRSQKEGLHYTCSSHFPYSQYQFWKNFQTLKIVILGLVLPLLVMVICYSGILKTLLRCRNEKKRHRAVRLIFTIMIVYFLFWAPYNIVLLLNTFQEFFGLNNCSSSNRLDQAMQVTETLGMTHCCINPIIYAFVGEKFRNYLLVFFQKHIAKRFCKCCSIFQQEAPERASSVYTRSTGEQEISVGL
Sequence of human CCR2 receptors (P41597 whole entry): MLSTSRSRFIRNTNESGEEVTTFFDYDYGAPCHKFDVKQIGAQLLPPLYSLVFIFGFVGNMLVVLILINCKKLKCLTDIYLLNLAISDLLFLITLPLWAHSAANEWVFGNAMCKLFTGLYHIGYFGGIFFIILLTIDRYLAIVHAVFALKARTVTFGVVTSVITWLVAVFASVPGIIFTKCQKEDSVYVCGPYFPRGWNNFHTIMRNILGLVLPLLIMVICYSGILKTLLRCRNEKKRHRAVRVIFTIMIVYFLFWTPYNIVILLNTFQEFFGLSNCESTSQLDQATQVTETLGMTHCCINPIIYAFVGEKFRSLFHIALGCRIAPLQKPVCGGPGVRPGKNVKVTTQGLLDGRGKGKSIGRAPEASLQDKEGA

CO[C@H]1COCC[C@H]1NC1CCN(C(=O)c2ncnc(NC[C@H]3CCC[C@@H](c4ccc(C)cc4)O3)c2C)CC1.O=C(O)CC(O)(CC(=O)O)C(=O)O [Compound 1, (4-((3R,4R)-3-Methoxytetrahydro-pyran-4-ylamino)piperidin-1-yl)(5-methyl-6-(((2R,6S)-6-(p-tolyl)tetrahydro-2H-pyran-2-yl)methylamino)pyrimidin-4-yl)methanone citrate]
state of the compound after the sorption experiment ([1]; after the sorption experiment): still remains as solid material | stability against relative humidity ([1]; relative humidity, 25° C.): up to 80% | uptake of water ([1]; sorption experiment, relative humidity up to 80%, uptake reversible): 2.6% | IC50 (human CCR2 receptors): 50 nM | Ki (human CCR2 receptors): 4.2 nM | IC50 (human CCR5 receptors): 88 nM | Ki (human CCR5 receptors): 75 nM
